According to patent US12595239B2, “Substituted isoxazoline derivatives” (BASF SE, priority 2021, dated 2026):

Legend:
Type in all cases: in vivo
[1] = system: Heliothis virescens; experiment: B.4 Tobacco Budworm, microtiter plate diet test; conditions: 120 h, egg and larval mortality, 5 days, read-out: mortality in comparison with untreated controls
Experimental: For evaluating control of Tobacco Budworm, the test unit consisted of 96-well-microtiter plates containing an insect diet and 15-25 H. virescens eggs. The compounds were formulated using a solution containing 75% v/v water and 25% v/v DMSO. Different concentrations of formulated compounds were sprayed onto the insect diet at 10 μl, using a custom-built micro atomizer, at two replications. After application, microtiter plates were incubated at about 28±1° C. and about 80±5% relative humidity for 5 days. Egg and larval mortality was then visually assessed.

[2] = system: Myzus persicae; experiment: B.3 Green Peach Aphid (mixed life stages), systemic artificial diet test; conditions: 72 h, treated aphid diet, 3 days, read-out: mortality in comparison with untreated controls
Excerpt: For evaluating control of Green Peach Aphid through systemic means the test unit consisted of 96-well-microtiter plates containing liquid artificial diet under an artificial membrane. The compounds were formulated using a solution containing 75% v/v water and 25% v/v DMSO. Different concentrations of formulated compounds were pipetted into the aphid diet, using a custom-built pipette, at two replications. After application, 5-8 adult aphids were placed on the artificial membrane inside the microtiter plate wells. The aphids were then allowed to suck on the treated aphid diet and incubated at about 23±1° C. and about 50±5% relative humidity for 3 days. Aphid mortality and fecundity was then visually assessed.

[3] = system: Aedes aegypti; experiment: whole plant or invertebrate; conditions: 48 h, larval mortality, 2 days, read-out: mortality in comparison with untreated controls
Experimental: For evaluating control of Yellow Fever Mosquito, the test unit consisted of 96-well-microtiter plates containing 200 μl of tap water per well and 5-15 freshly hatched A. aegypti larvae. The active compounds were formulated using a solution containing 75% (v/v) water and 25% (v/v) DMSO. Different concentrations of formulated compounds or mixtures were sprayed onto the insect diet at 2.5 μl, using a custom-built micro atomizer, at two replications.
After application, microtiter plates were incubated at 28±1° C., 80±5% RH for 2 days. Larval mortality was then visually assessed.

[4] = system: Nezara viridula; experiment: B.8 Green Soldier Stink Bug, soybean pod spray test; conditions: 120 h, late 3rd instar, after 5 days, read-out: mortality in comparison with untreated controls
Experimental: The active compound was dissolved at the desired concentration in a mixture of 1:1 (vol:vol) distilled water:aceteone. Surfactant (Kinetic) was added at a rate of 0.01% (vol/vol). The test solution was prepared at the day of use. Soybean pods were placed in 90×50 mm glass Petri dishes lined with moistened filter paper and inoculated with ten late 3rd instar N. viridula. Using a hand atomizer, an approximately 2 ml solution was sprayed into each Petri dish. Treated setup was kept at about 25-26° C. and relative humidity of about 65-70%. Percent mortality was recorded after 5 days.

[5] = system: Plutella xylostella; experiment: B.6 Diamond Back Moth, cabbage leaf disc dip test; conditions: foliar, 3rd instar larvae, 72 hours after treatment, read-out: mortality in comparison with untreated controls
Experimental: The active compound was dissolved at the desired concentration in a mixture of 1:1 (vol:vol) distilled water:acetone. Surfactant (Kinetic) was added at a rate of 0.01% (vol/vol). The test solution was prepared at the day of use. Cabbage leaf discs (60 mm in diameter) were dipped in test solution and air-dried. Treated leaves were placed in petri dishes lined with moistened filter paper and inoculated with ten 3rd instar larvae. Mortality was recorded 72 hours after treatment. Feeding damages were also recorded using a scale of 0-100%.

[6] = system: Dichromothrips corbetti; experiment: B.7 Orchid Thrips, floral-immersion test; conditions: adult thrips, 72 hours after treatment, read-out: mortality in comparison with untreated controls
Experimental: Dichromothrips corbetti adults used for bioassay were obtained from a colony maintained continuously under laboratory conditions. For testing purposes, the test compound was diluted in a 1:1 mixture of acetone:water (vol:vol), plus Kinetic at a rate of 0.01% v/v.
Thrips potency of each compound was evaluated by using a floral-immersion technique. Each orchid petal was dipped into treatment solution and allowed to dry in Petri dishes. Treated petals were placed into individual re-sealable plastic along with about 20 adult thrips. All test arenas were held under dark condition and a temperature of about 28° C. for duration of the assay. The percent mortality was recorded 72 hours after treatment.

[7] = system: Anthonomus grandis; experiment: B.1 Boll weevil (Anthonomus grandis), 96-well microtiter plate diet test; conditions: 120 h, egg and larval mortality, 5 days, read-out: mortality in comparison with untreated controls
Experimental: For evaluating control of boll weevil, the test unit consisted of 96-well-microtiter plates containing an insect diet and 5-10 A. grandis eggs.
The compounds were formulated using a solution containing 75% v/v water and 25% v/v DMSO. Different concentrations of formulated compounds were sprayed onto the insect diet at 5 μl, using a custom-built micro atomizer, at two replications.
After application, microtiter plates were incubated at about 25±1° C. and about 75±5% relative humidity for 5 days. Egg and larval mortality were then visually assessed.

[8] = system: Spodoptera eridania; experiment: B.11 Southern Armyworm 2nd instar larvae, lima bean foliar spray test; conditions: 96 h, 4 days after treatment, read-out: mortality in comparison with untreated controls
Experimental: The active compounds were formulated by a Tecan liquid handler in 100% cyclohexanone as a 10′000 ppm solution supplied in tubes. The 10′000 ppm solution was serially diluted in 100% cyclohexanone to make interim solutions. These served as stock solutions for which final dilutions were made by the Tecan in 50% acetone:50% water (v/v) into 10 or 20 ml glass vials. A nonionic surfactant (Kinetic®) was included in the solution at a volume of 0.01% (v/v). The vials were then inserted into an automated electrostatic sprayer equipped with an atomizing nozzle for application to plants/insects. Lima bean plants (variety Sieva) were grown 2 plants to a pot and selected for treatment at the 1st true leaf stage. Test solutions were sprayed onto the foliage by an automated electrostatic plant sprayer equipped with an atomizing spray nozzle. The plants were dried in the sprayer fume hood and then removed from the sprayer. Each pot was placed into perforated plastic bags with a zip closure. Ten to 11 armyworm larvae were placed into the bag and the bags zipped closed. Test plants were maintained in a growth room at about 25° C. and about 20-40% relative humidity for 4 days, avoiding direct exposure to fluorescent light (14:10 light:dark photo-period) to prevent trapping of heat inside the bags. Mortality and reduced feeding were assessed 4 days after treatment, compared to untreated control plants.

[9] = system: Trialeurodes vaporarirorum; experiment: B.2 Greenhouse Whitefly, microtiter plate eggplant leaf disk test; conditions: foliar, 144 h, mortality of hatched crawlers, 6 days, read-out: mortality in comparison with untreated controls
Experimental: For evaluating control of Greenhouse Whitefly, the test unit consisted of 96-well-microtiter plates containing a leaf disk of eggplant leaf disk with Whitefly eggs. The compounds or mixtures were formulated using a solution containing 75% water and 25% DMSO. Different concentrations of formulated were sprayed onto the insect diet at 2.5 μl, using a custom-built micro atomizer, at two replications. After application, microtiter plates were incubated at 23±1° C., 65±5% RH for 6 days. Mortality of hatched crawlers was then visually assessed.

[10] = system: Nephotettix virescens; experiment: B.9 Rice Green Leafhopper, rice seedling spray test; conditions: adults, after 72 hours, read-out: mortality in comparison with untreated controls
Experimental: Four to five-week old rice seedlings with cut upper leaf portion were cleaned and washed 24 hours before spraying. The active compounds were formulated in 1:1 acetone:water (vol:vol), and 0.01% vol/vol surfactant (Kinetic) was added. Potted rice seedlings were sprayed with 5-6 ml test solution, air dried, covered with Mylar cages and inoculated with 10 adults. Treated rice plants were kept at about 28-29° C. and relative humidity of about 50-60%. Percent mortality was recorded after 72 hours.

[11] = system: Tetranychus kanzawai; experiment: B.10 Red Spider Mite, cowpea bean spray test; conditions: 72 hours after treatment, read-out: mortality in comparison with untreated controls
Experimental: The active compound was dissolved at the desired concentration in a mixture of 1:1 (vol:vol) distilled water:acetone. Add surfactant (Kinetic) was added at a rate of 0.01% (vol/vol). The test solution was prepared at the day of use. Potted cowpea beans of 4-5 days of age were cleaned with tap water and sprayed with I-2 ml of the test solution using air driven DeVilbiss® hand atomizer at 20-30 psi (≈1,38 to 2,07 bar). The treated plants were allowed to air dry and afterwards inoculated with 30 or more mites by clipping a cassava leaf section from rearing population. Treated plants were placed inside a holding room at about 25-26° C. and about 65-70% relative humidity. Percent mortality was assessed 72 hours after treatment.

[12] = system: Bemisia argentifolii; experiment: B.12 Silverleaf Whitefly (adults), cotton plant spray test; conditions: 72 h, 3 days after treatment, read-out: mortality in comparison with untreated controls
Experimental: The active compounds were formulated by a Tecan liquid handler in 100% cyclohexanone as a 10,000-ppm solution supplied in tubes. The 10,000-ppm solution was serially diluted in 100% cyclohexanone to make interim solutions. These served as stock solutions for which final dilutions were made by the Tecan in 50% acetone:50% water (v/v) into 5 or 10 ml glass vials. A nonionic surfactant (Kinetic®) was included in the solution at a volume of 0.01% (v/v). The vials were then inserted into an automated electrostatic sprayer equipped with an atomizing nozzle for application to plants/insects. Cotton plants at the cotyledon stage (one plant per pot) were sprayed by an automated electrostatic plant sprayer equipped with an atomizing spray nozzle. The plants were dried in the sprayer fume hood and then removed from the sprayer. Each pot was placed into a plastic cup and about 10 to 12 whitefly adults (approximately 3-5 days old) were introduced. The insects were collected using an aspirator and a nontoxic Tygon® tubing connected to a barrier pipette tip. The tip, containing the collected insects, was then gently inserted into the soil containing the treated plant, allowing insects to crawl out of the tip to reach the foliage for feeding. Cups were covered with a reusable screened lid. Test plants were maintained in a growth room at about 25° C. and about 20-40% relative humidity for 3 days, avoiding direct exposure to fluorescent light (14:10 light:dark photoperiod) to prevent trapping of heat inside the cup. Mortality was assessed 3 days after treatment, compared to untreated control plants.

Nc1c(F)ccc(NC(=O)c2cc(NC3=NOC(c4cc(Cl)cc(Cl)c4)(C(F)(F)F)C3)ccc2Cl)c1F (stereo not shown) [I-4, N-(3-amino-2,4-difluoro-phenyl)-2-chloro-5-[[5-(3,5-dichlorophenyl)-5-(trifluoromethyl)-4H-isoxazol-3-yl]amino]benzamide]
≥ 75%: mortality at 2500 ppm [1] | mortality at 2500 ppm [2] | mortality at 2500 ppm [3] | mortality at 300 ppm [4] | mortality at 300 ppm [5] | mortality at 300 ppm [6] | mortality at 2500 ppm [7]

O=C(Nc1ccc(F)cc1F)c1cc(NC2=NOC(c3cccc(C(F)(F)F)c3)(C(F)(F)F)C2)ccc1Cl (stereo not shown) [I-38, 2-chloro-N-(2,4-difluorophenyl)-5-[[5-(trifluoromethyl)-5-[3-(trifluoromethyl)phenyl]-4H-isoxazol-3-yl]amino]benzamide]
≥ 75%: mortality at 300 ppm [8] | mortality at 2500 ppm [9] | mortality at 300 ppm [4] | mortality at 300 ppm [5] | mortality at 300 ppm [6]

N#CC1(NC(=O)c2cc(N(CC3CC3)C3=NOC(c4cc(Cl)cc(Cl)c4)(C(F)(F)F)C3)ccc2Cl)CC1 (stereo not shown) [I-60, 2-chloro-N-(1-cyanocyclopropyl)-5-[cyclopropylmethyl-[5-(3,5-dichlorophenyl)-5-(trifluoromethyl)-4H-isoxazol-3-yl]amino]benzamide]
≥ 75%: mortality at 300 ppm [10] | mortality at 300 ppm [8] | mortality at 300 ppm [4] | mortality at 300 ppm [5] | mortality at 300 ppm [6]

O=C(NC1C[S+]([O-])C1)c1cc(NC2=NOC(c3cc(Cl)c(F)c(Cl)c3)(C(F)(F)F)C2)ccc1Cl (stereo not shown) [I-61, 2-chloro-5-[[5-(3,5-dichloro-4-fluoro-phenyl)-5-(trifluoromethyl)-4H-isoxazol-3-yl]amino]-N-(1-oxothietan-3-yl)benzamide]
≥ 75%: mortality at 300 ppm [11] | mortality at 300 ppm [8] | mortality at 300 ppm [5] | mortality at 300 ppm [6]

CCOC(=O)N(C1=NOC(c2cc(Cl)cc(Cl)c2)(C(F)(F)F)C1)c1ccc(Cl)c(C(=O)NC2(C#N)CC2)c1 (stereo not shown) [I-111, ethyl N-[4-chloro-3-[(1-cyanocyclopropyl)carbamoyl]phenyl]-N-[5-(3,5-dichlorophenyl)-5-(trifluoromethyl)-4H-isoxazol-3-yl]carbamate]
≥ 75%: mortality at 300 ppm [12] | mortality at 300 ppm [11] | mortality at 300 ppm [8] | mortality at 300 ppm [4] | mortality at 300 ppm [5] | mortality at 300 ppm [6]

CCN1OC[C@@H](NC(=O)c2cc(N(C)C3=NOC(c4cc(Cl)c(F)c(Cl)c4)(C(F)(F)F)C3)ccc2Cl)C1=O (stereo partly drawn) [I-119, 2-chloro-5-[[5-(3,5-dichloro-4-fluoro-phenyl)-5-(trifluoromethyl)-4H-isoxazol-3-yl]-methyl-amino]-N-[(4R)-2-ethyl-3-oxo-isoxazolidin-4-yl]benzamide]
≥ 75%: mortality at 300 ppm [10] | mortality at 300 ppm [4] | mortality at 300 ppm [5] | mortality at 300 ppm [6]
